In US10287267B2, “Isoquinolin-3-yl carboxamides and preparation and use thereof” (Samumed, LLC, priority 2016, dated 2019) one finds EC50 and inhibition data, which are given here for 16 compounds.

pEC50: −log10 of the molar value. Like-named read-outs stand apart in the source and are kept apart here. Some results are limits rather than exact numbers.

One experiment concerns IL-6. Description: IL-6 inhibition in LPS-stimulated human peripheral blood mononuclear cells (HTRF).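 As to all read-outs here: IL-6 detected by HTRF with an XL665- and Cryptate-labelled anti-IL-6 antibody pair, samples run in duplicate, EC50 obtained from a four-parameter Levenberg-Marquardt curve fit.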 In kind it is cell-based. The note with it: for pEC50: Table 9, huPBMCs, LPS 50 ng/mL, 22 hours, dose-response starting from 10 μM; for inhibition at 10 µM: read-out: percent value in parentheses beside EC50 >10 μM. On the technique in general: TR-FRET usually uses a lanthanide donor and a delayed reading to cut background.

For experiment [1], the system named is Wnt pathway (Sp5-Luc reporter, TCF/LEF binding sites) in SW480 colon carcinoma cells. Description: Screening assay for Wnt activity: Sp5-Luc reporter gene assay.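 As to all read-outs here: firefly luciferase luminescence read in stably transduced SW480 cells carrying the Sp5 promoter reporter with eight TCF/LEF sites, compounds given in 0.1% DMSO final.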 Format: cell-based, human. To be noted: for pEC50: Sp5-Luc reporter, SW480 cells, 36 to 48 hours; for inhibition at 10 µM: SW480, read-out: percent inhibition at 10 μM.
Procedure: The screening assay for Wnt activity is described as follows.
Following incubation, 15 μl of BriteLite Plus luminescence reagent (Perkin Elmer) was added to each well of the 384-well assay plates. The plates were placed on an orbital shaker for 2 min and then luminescence was quantified using the Envision (Perkin Elmer) plate reader.
The next experiment addresses recombinant GSK3β kinase (Homo sapiens (Human), UniProt P49841). Description: GSK3β kinase assay (Ser/Thr 09 peptide Z-lyte FRET).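 Also: kinase activity read as coumarin to fluorescein emission ratio, 11-point threefold dilutions from 10 µM to 0.0003 µM in duplicate, unphosphorylated and phosphorylated peptide as 0% and 100% controls.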 To be noted: 46 μM ATP, 1 h room temperature. In kind it is biochemical.
Experiment [2] relates to α-smooth muscle actin (αSMA) positive LL29 cells. Description: Inhibition of fibrotic process: αSMA in TGF-β1 treated primary human fibroblasts from IPF patients.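 As to all read-outs here: controls were TGF-β1 stimulated wells with DMSO vehicle (positive) and cells given DMSO alone (negative), cultured in F12 medium with 1% fetal bovine serum.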 In kind it is cell-based. To be noted: for pEC50: Table 8, LL29 fibroblasts from IPF patients, TGF-β1 20 ng/mL, 4 days; for inhibition at 10 µM: read-out: percent value in parentheses beside EC50 >10 μM.
Experiment [3] concerns the target recombinant DYRK1A kinase (Homo sapiens (Human), UniProt Q13627). Put plainly: DYRK1A kinase assay (Ser/Thr 18 peptide Z-lyte FRET).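 Also: Read-out is the coumarin to fluorescein emission ratio, referenced to unphosphorylated (0%) and phosphorylated (100%) Ser/Thr 18 peptide controls, values from dose-response curves by non-linear regression.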 In kind it is biochemical. The note with it: 30 μM ATP, 1 h room temperature.
In experiment [4] the test system is Tau phosphorylation at Ser396 (pSer396). Put plainly: Tau phosphorylation assay (pSer396 ELISA / western blot) in SH-SY5Y cells.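 Also: EC50 for reduction of Tau pSer396 in lysed cells, measured by colorimetric ELISA or chemiluminescent western blot, both using the same pSer396 antibody.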 In kind it is cell-based, human. The note with it: SH-SY5Y cells, overnight (16-18 h) exposure, read-out: pSer396 Tau EC50.
Experiment [5] has as its system SW480 colon carcinoma cells. Put plainly: Cell viability assay (CellTiter-Glo). In kind it is cell-based, human. The note with it: for pEC50: SW480 cells, CellTiter-Glo, four days incubation; for inhibition at 10 µM: SW480, read-out: percent inhibition at 10 μM. A general note: ATP-based viability assays read luminescence as a measure of living cells.
The mark [6] stands for this setting: Homo sapiens, Fibroblast, 96 h, dose-response 10 μM to 0.94 nM.

Chain of recombinant GSK3β kinase (P49841 whole entry): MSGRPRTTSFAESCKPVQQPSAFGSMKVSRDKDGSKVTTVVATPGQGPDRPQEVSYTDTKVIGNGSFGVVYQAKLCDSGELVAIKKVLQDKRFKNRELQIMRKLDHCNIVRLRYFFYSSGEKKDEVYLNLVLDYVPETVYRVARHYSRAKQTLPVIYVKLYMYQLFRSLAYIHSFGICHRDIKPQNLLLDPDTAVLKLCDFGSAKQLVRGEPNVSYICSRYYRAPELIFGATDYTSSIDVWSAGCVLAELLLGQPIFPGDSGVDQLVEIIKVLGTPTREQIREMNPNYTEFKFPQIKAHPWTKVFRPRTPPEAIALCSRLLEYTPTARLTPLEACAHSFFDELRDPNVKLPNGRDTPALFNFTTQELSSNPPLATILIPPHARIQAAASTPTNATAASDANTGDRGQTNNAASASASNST
Procedure for IL-6: After 22 hour incubation, a mixture of anti-IL6 XL665 and anti-IL-6 Cryptate diluted in reconstitution buffer (Catalog #62IL6PEC, Cisbio Inc., Bedford, Mass.) was added to each well. […] All samples were processed in duplicate. […] EC50 was determined using software generated by Dotmatics Limited (Windhill Bishops Stortford Herts, UK) using the Levenberg-Marquardt 4 parameter fitting procedure with finite different gradients.

Turning to `Cn1ncc(-c2ccc3cnc(NC(=O)C4CCC(F)(F)CC4)cc3c2)c1CN1CCC1` [Compound 298, N-(6-(5-(Azetidin-1-ylmethyl)-1-methyl-1H-pyrazol-4-yl)isoquinolin-3-yl)-4,4-difluorocyclohexane-1-carboxamide], the pEC50 in the experiment with IL-6 (Homo sapiens, PBMC) was 5.26; in experiment [1] (Homo sapiens), 5.49; at recombinant GSK3β kinase it was 6.90; in experiment [2] (setting [6]), 5.87; in experiment [3], 7.87; in experiment [4] (Homo sapiens), 5.86. Besides, the pEC50 in experiment [5] (Homo sapiens, 96 h) was 5.62.
For `Cn1ncc(-c2ccc3cnc(NC(=O)C4CCC(F)(F)CC4)cc3c2)c1CN1CCCC1` [Compound 299, 4,4-Difluoro-N-(6-(1-methyl-5-(pyrrolidin-1-ylmethyl)-1H-pyrazol-4-yl)isoquinolin-3-yl)cyclohexane-1-carboxamide], the pEC50 is 5.34 in the experiment on IL-6 (Homo sapiens, PBMC); 5.82 in experiment [1] (Homo sapiens); 7.36 on recombinant GSK3β kinase; 5.92 in experiment [2] (setting [6]); 8.17 in experiment [3]; 6.24 in experiment [4] (Homo sapiens). Moreover, the pEC50 in experiment [5] (Homo sapiens, 96 h) was 5.65.
For `Cn1ncc(-c2ccc3cnc(NC(=O)C4CCC(F)(F)CC4)cc3c2)c1CN1CCCCC1` [Compound 300, 4,4-Difluoro-N-(6-(1-methyl-5-(piperidin-1-ylmethyl)-1H-pyrazol-4-yl)isoquinolin-3-yl)cyclohexane-1-carboxamide], the pEC50 in the experiment with IL-6 (Homo sapiens, PBMC) was 5.56; in experiment [1] (Homo sapiens) it was 5.95; at recombinant GSK3β kinase it was 7.51; in experiment [2] (setting [6]) it was 6.29; in experiment [3], 8.09; in experiment [4] (Homo sapiens), 6.65. In addition, in experiment [5] (Homo sapiens, 96 h), the pEC50 is 5.89.
As for `Cn1cc(-c2ccc3cnc(NC(=O)C4CC5(CCN(CCF)CC5)C4)cc3c2)cn1` [Compound 301, 7-(2-Fluoroethyl)-N-(6-(1-methyl-1H-pyrazol-4-yl)isoquinolin-3-yl)-7-azaspiro[3.5]nonane-2-carboxamide], the pEC50 with IL-6 (Homo sapiens, PBMC) was 6.41; in experiment [1] (Homo sapiens) it was 6.33; on recombinant GSK3β kinase, 8.00; in experiment [2] (setting [6]) it was 5.32; in experiment [3], 8.70; in experiment [4] (Homo sapiens), 6.97. Also, the pEC50 in experiment [5] (Homo sapiens, 96 h) is 6.26.
With `CN(CC(=O)Nc1cc2cc(-c3cnn(C)c3)ccc2cn1)C1CCC1` [Compound 302, 2-(Cyclobutyl(methyl)amino)-N-(6-(1-methyl-1H-pyrazol-4-yl)isoquinolin-3-yl)acetamide], the pEC50 with IL-6 (Homo sapiens, PBMC) is 5.11; in experiment [1] (Homo sapiens) it was 5.44; at recombinant GSK3β kinase, 7.42; in experiment [2] (setting [6]), 6.05; in experiment [3] it was 8.11; in experiment [4] (Homo sapiens), 6.20. Moreover, the pEC50 in experiment [5] (Homo sapiens, 96 h) was under 5.00. In addition, in experiment [5] (Homo sapiens), the inhibition at 10 µM was found to be 34.9%.
On to `CCN(CC)CC(=O)Nc1cc2cc(-c3cnn(C)c3)ccc2cn1` [Compound 303, 2-(Diethylamino)-N-(6-(1-methyl-1H-pyrazol-4-yl)isoquinolin-3-yl) acetamide], for which the pEC50 with IL-6 (Homo sapiens, PBMC) was 5.28; in experiment [1] (Homo sapiens) it was 5.01; on recombinant GSK3β kinase, 7.05; in experiment [2] (setting [6]), 6.09; in experiment [3], 8.10; in experiment [4] (Homo sapiens), 6.11. For the same compound, in experiment [5] (Homo sapiens, 96 h), the pEC50 is 5.11.
On to `[2H]C([2H])([2H])n1cc(-c2ccc3cnc(NC(=O)C4CCN(CCC(F)(F)F)CC4)cc3c2)cn1` [Compound 304, N-(6-(1-(Methyl-d3)-1H-pyrazol-4-yl)isoquinolin-3-yl)-1-(3,3,3-trifluoropropyl)piperidine-4-carboxamide], for which the pEC50 was 5.94 with IL-6 (Homo sapiens, PBMC); 5.64 in experiment [1] (Homo sapiens); 7.54 at recombinant GSK3β kinase; 6.82 in experiment [2] (setting [6]); 8.57 in experiment [3]; 6.68 in experiment [4] (Homo sapiens). In addition, in experiment [5] (Homo sapiens, 96 h), the pEC50 is 5.87.
Regarding `[2H]C([2H])([2H])n1cc(-c2ccc3cnc(NC(=O)CN4CCCC4)cc3c2)cn1` [Compound 305, N-(6-(1-(Methyl-d3)-1H-pyrazol-4-yl)isoquinolin-3-yl)-2-(pyrrolidin-1-yl) acetamide], the pEC50 with IL-6 (Homo sapiens, PBMC) was 5.94; in experiment [1] (Homo sapiens), 5.71; on recombinant GSK3β kinase it was 7.29; in experiment [2] (setting [6]), 5.26; in experiment [3], 8.09; in experiment [4] (Homo sapiens), 6.61. In experiment [5] (Homo sapiens, 96 h), this compound gave a pEC50 of 5.78.
As to `[2H]C([2H])([2H])n1cc(-c2ccc3cnc(NC(=O)CN4CCCCC4)cc3c2)cn1` [Compound 306, N-(6-(1-(Methyl-d3)-1H-pyrazol-4-yl)isoquinolin-3-yl)-2-(piperidin-1-yl) acetamide], the pEC50 was 5.60 in the experiment with IL-6 (Homo sapiens, PBMC); 5.43 in experiment [1] (Homo sapiens); 7.18 on recombinant GSK3β kinase; 6.55 in experiment [2] (setting [6]); 8.14 in experiment [3]; 6.23 in experiment [4] (Homo sapiens). In experiment [5] (Homo sapiens, 96 h), this compound showed a pEC50 of 5.49.
Consider `Cc1cc(-c2ccc3cnc(NC(=O)C4CCN(CCC(F)(F)F)CC4)cc3c2)on1` [Compound 307, N-(6-(3-Methylisoxazol-5-yl)isoquinolin-3-yl)-1-(3,3,3-trifluoropropyl) piperidine-4-carboxamide], for which the inhibition at 10 µM in the experiment with IL-6 (Homo sapiens, PBMC) came out at 4.3%; in experiment [1] (Homo sapiens), 25.9%. Also, the negative logarithm of the EC50 (pEC50) in the experiment with IL-6 (Homo sapiens, PBMC) is under 5.00; in experiment [1] (Homo sapiens), under 5.00; on recombinant GSK3β kinase, 5.28; in experiment [2] (setting [6]), 5.15; in experiment [3] it was 5.21; in experiment [4] (Homo sapiens), 5.68. Also, the pEC50 in experiment [5] (Homo sapiens, 96 h) is under 5.00.
Regarding `O=C(Nc1cc2cc(-c3cnco3)ccc2cn1)C1CCN(CCC(F)(F)F)CC1` [Compound 308, N-(6-(Oxazol-5-yl)isoquinolin-3-yl)-1-(3,3,3-trifluoropropyl)piperidine-4-carboxamide], the pEC50 was 5.03 in the experiment on IL-6 (Homo sapiens, PBMC); 5.74 in experiment [1] (Homo sapiens); 6.97 on recombinant GSK3β kinase; under 5.00 in experiment [2] (setting [6]); 8.62 in experiment [3]; 6.44 in experiment [4] (Homo sapiens). In addition, the pEC50 in experiment [5] (Homo sapiens, 96 h) was under 5.00. For the same compound, the inhibition at 10 µM in experiment [2] (Homo sapiens, Fibroblast) was found to be 27.6%; in experiment [5] (Homo sapiens), 32%.
As to `Cc1nnc(-c2ccc3cnc(NC(=O)C4(F)CCN(CC(C)C)CC4)cc3c2)o1` [Compound 309, 4-Fluoro-1-isobutyl-N-(6-(5-methyl-1,3,4-oxadiazol-2-yl)isoquinolin-3-yl) piperidine-4-carboxamide], the inhibition at 10 µM turned out to be 4.5% with IL-6 (Homo sapiens, PBMC); 43.5% in experiment [1] (Homo sapiens); 9.6% in experiment [5] (Homo sapiens). Besides, the negative logarithm of the EC50 (pEC50) with IL-6 (Homo sapiens, PBMC) is under 5.00; in experiment [1] (Homo sapiens), under 5.00; on recombinant GSK3β kinase, 6.92; in experiment [2] (setting [6]) it was 7.85; in experiment [3], 7.46; in experiment [4] (Homo sapiens) it was 5.91. Moreover, the pEC50 in experiment [5] (Homo sapiens, 96 h) is under 5.00.
Take `Cn1cc(-c2ccc3cnc(NC(=O)C4CCN(CC5(C(F)(F)F)CC5)CC4)cc3c2)cn1` [Compound 310, N-(6-(1-Methyl-1H-pyrazol-4-yl)isoquinolin-3-yl)-1-((1-(trifluoromethyl)cyclopropyl)methyl)piperidine-4-carboxamide]: the pEC50 with IL-6 (Homo sapiens, PBMC) was 5.93; in experiment [1] (Homo sapiens), 5.84; on recombinant GSK3β kinase, 6.98; in experiment [2] (setting [6]), 6.53; in experiment [3], 8.21; in experiment [4] (Homo sapiens), 6.20. The same compound had a pEC50 in experiment [5] (Homo sapiens, 96 h) of 5.27.
With `C[C@H](F)CN1CCC(C(=O)Nc2cc3cc(-c4cnn(C)c4)ccc3cn2)CC1` [Compound 311, (S)-1-(2-Fluoropropyl)-N-(6-(1-methyl-1H-pyrazol-4-yl)isoquinolin-3-yl) piperidine-4-carboxamide], the pEC50 with IL-6 is 6.40; in experiment [1], 6.24; on recombinant GSK3β kinase, 7.70; in experiment [2] (dose-response 10 μM to […]) it was 7.12; in experiment [3], 8.72; in experiment [4], 6.79. Besides, the pEC50 in experiment [5] was 6.12.
In the case of `Cn1cc(-c2ccc3cnc(NC(=O)C(C)(C)F)cc3c2)nn1` [Compound 312, 2-Fluoro-2-methyl-N-(6-(1-methyl-1H-1,2,3-triazol-4-yl)isoquinolin-3-yl) propanamide], the inhibition at 10 µM was found to be 3.9% in the experiment on IL-6 (Homo sapiens, PBMC); 23.8% in experiment [1] (Homo sapiens); 36.5% in experiment [2] (Homo sapiens, Fibroblast). Besides, the pEC50 is under 5.00 with IL-6 (Homo sapiens, PBMC); under 5.00 in experiment [1] (Homo sapiens); 7.51 at recombinant GSK3β kinase; under 5.00 in experiment [2] (setting [6]); 7.90 in experiment [3]; 6.12 in experiment [4] (Homo sapiens). The compound also gave a pEC50 in experiment [5] (Homo sapiens, 96 h) of under 5.00.
Regarding `C[C@@H](F)CN1CCC(C(=O)Nc2cc3cc(-c4cnn(C)c4)ccc3cn2)CC1` [Compound 313, (R)-1-(2-Fluoropropyl)-N-(6-(1-methyl-1H-pyrazol-4-yl)isoquinolin-3-yl) piperidine-4-carboxamide], the pEC50 in the experiment with IL-6 (Homo sapiens, PBMC) was 6.00; in experiment [1] (Homo sapiens), 6.24; at recombinant GSK3β kinase it was 7.41; in experiment [2] (setting [6]), 6.98; in experiment [3], 8.60; in experiment [4] (Homo sapiens), 6.48. The pEC50 in experiment [5] (Homo sapiens, 96 h) was 6.15.

Usually pEC50 stands for −log10 of the EC50, conventionally taken in molar units.
